Experimental data published in the supplement of paper PMC4977894.
Counter-ions that a name gives are not always drawn. ± gives the standard deviation of the averaged measurements.

Columns and labels:
[1] = test system: Homo sapiens (human subject panel, olfactory perception); assay: perceived odor pleasantness rating (rating 0-100); higher = more pleasant
Method in brief: (§1)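 For each molecule, 1 mL diluted in paraffin oil was sniffed at high and low concentrations by 55 healthy human subjects aged 18–50, with the six lowest performers excluded. Presentation order was randomized over ten visits of 100 stimuli. Subjects who reported smelling a stimulus moved a computerized slider from its starting position of 50, and positions were converted to a 0–100 scale. The familiarity, intensity and pleasantness ratings are averaged across subjects.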

[2] = test system: Homo sapiens (human subject panel, olfactory perception); assay: perceived odor intensity rating (rating 0-100); higher = stronger perceived smell
Method in brief: as §1

[3] = test system: Homo sapiens (human subject panel, olfactory perception); assay: perceived odor familiarity rating (rating 0-100); higher = more familiar
Method in brief: as §1

[4] = odor dilution in paraffin oil: 1/1,000
[5] = odor dilution in paraffin oil: 1/100,000
[6] = odor dilution in paraffin oil: 1/10
[7] = odor dilution in paraffin oil: 1/10,000,000

| SMILES | perceived odor pleasantness rating [1, 4] | perceived odor pleasantness rating [1, 5] | perceived odor intensity rating [2, 4] | perceived odor intensity rating [2, 5] | perceived odor familiarity rating [3, 4] | perceived odor familiarity rating [3, 5] | perceived odor pleasantness rating [1, 6] | perceived odor intensity rating [2, 6] | perceived odor familiarity rating [3, 6] | perceived odor pleasantness rating [1, 7] | perceived odor intensity rating [2, 7] | perceived odor familiarity rating [3, 7] |
| --- | --- | --- | --- | --- | --- | --- | --- | --- | --- | --- | --- | --- |
| OCC1CCCO1 (stereo unspecified) [Tetrahydrofurfuryl alcohol] | 42.7 ± 25 | 45.1 ± 22 | 29.6 ± 27 | 18.4 ± 23 | 30.3 ± 29 | 40.3 ± 28 | – | – | – | – | – | – |
| Cc1ncc(C[n+]2csc(CCO)c2C)c(N)n1 [Thiamine hydrochloride] | 36.4 ± 22 | – | 61.6 ± 25 | – | 44.7 ± 28 | – | 35.5 ± 25 | 67.1 ± 23 | 51.5 ± 29 | – | – | – |
| c1cscn1 [Thiazole] | 43.2 ± 24 | 45.5 ± 21 | 25.1 ± 27 | 18.8 ± 22 | 41.3 ± 29 | 27.2 ± 25 | – | – | – | – | – | – |
| c1ccsc1 [Thiophene (replicate)] | 33.7 ± 27 | 36 ± 22 | 66.4 ± 25 | 27.6 ± 31 | 53.9 ± 31 | 42.1 ± 26 | – | – | – | – | – | – |
| c1ccsc1 [Thiophene] | 28.7 ± 20 | 40.8 ± 24 | 32.8 ± 34 | 39.5 ± 30 | 39.3 ± 29 | 43.1 ± 30 | – | – | – | – | – | – |
| CC(=O)OCC(COC(C)=O)OC(C)=O [Triacetin] | 38.9 ± 24 | – | 45.1 ± 30 | – | 39.2 ± 35 | – | 33.1 ± 25 | 57.8 ± 29 | 54.5 ± 35 | – | – | – |
| CCCCOC(=O)CC(CC(=O)OCCCC)(OC(C)=O)C(=O)OCCCC [Tributyl-2-Acetylcitrate] | 51.5 ± 23 | – | 6.93 ± 11 | – | 37.7 ± 28 | – | 43.2 ± 22 | 41.4 ± 30 | 35.9 ± 28 | – | – | – |
| CCCC(=O)OCC(COC(=O)CCC)OC(=O)CCC [Tributyrin] | 22.2 ± 22 | 39.5 ± 23 | 68.8 ± 28 | 31.9 ± 29 | 49.9 ± 30 | 36.9 ± 30 | – | – | – | – | – | – |
| CCOC(=O)CC(O)(CC(=O)OCC)C(=O)OCC [Triethyl citrate] | 46.2 ± 24 | – | 20.4 ± 24 | – | 26.4 ± 22 | – | 41.1 ± 19 | 31.3 ± 30 | 41.4 ± 29 | – | – | – |
| NCCc1ccc(O)cc1 [Tyramine] | 58 ± 26 | – | 20.4 ± 25 | – | 35.4 ± 34 | – | 34.7 ± 28 | 53.2 ± 33 | 51 ± 31 | – | – | – |
| CCCCCCCCCCC(=O)O [Undecanoic acid] | 31.1 ± 24 | – | 57.4 ± 33 | – | 41.9 ± 34 | – | 22.9 ± 21 | 81.8 ± 19 | 45.9 ± 32 | – | – | – |
| COc1cc(C=O)ccc1OC(C)=O [Vanillin Acetate] | 72.5 ± 22 | – | 54.6 ± 27 | – | 65.3 ± 28 | – | 74.3 ± 22 | 64.3 ± 26 | 69.6 ± 28 | – | – | – |
| COc1ccc(C=O)cc1OC [Veratraldehyde] | 62.4 ± 22 | – | 35.2 ± 29 | – | 53 ± 28 | – | 75.3 ± 22 | 74.1 ± 23 | 75.1 ± 26 | – | – | – |
| CCCCC1OC(=O)CC1C (stereo unspecified) [Whiskey lactone] | 69.7 ± 22 | 60.2 ± 27 | 71.3 ± 23 | 51.8 ± 29 | 62.2 ± 30 | 50.6 ± 33 | – | – | – | – | – | – |
| CC=O [acetaldehyde] | 45 ± 22 | 54 ± 24 | 40.5 ± 31 | 21.8 ± 26 | 37.4 ± 29 | 41.4 ± 31 | – | – | – | – | – | – |
| CC(=O)O [acetic acid] | – | 47.8 ± 24 | – | 21.2 ± 25 | – | 42 ± 32 | – | – | – | 46.1 ± 18 | 11.8 ± 16 | 35.5 ± 32 |
| CC(C)=O [acetone] | 51.2 ± 24 | – | 30 ± 29 | – | 38.8 ± 31 | – | 56.6 ± 25 | 37 ± 32 | 40.6 ± 28 | – | – | – |
| CC(=O)c1ccccc1 [acetophenone] | 52.8 ± 30 | 52.7 ± 26 | 81.5 ± 17 | 45.1 ± 29 | 61.3 ± 31 | 42.6 ± 30 | – | – | – | – | – | – |

| SMILES | perceived odor pleasantness rating [1, 4] | perceived odor pleasantness rating [1, 5] | perceived odor intensity rating [2, 4] | perceived odor intensity rating [2, 5] | perceived odor familiarity rating [3, 4] | perceived odor familiarity rating [3, 5] | perceived odor pleasantness rating [1, 6] | perceived odor intensity rating [2, 6] | perceived odor familiarity rating [3, 6] | perceived odor pleasantness rating [1, 7] | perceived odor intensity rating [2, 7] | perceived odor familiarity rating [3, 7] |
| --- | --- | --- | --- | --- | --- | --- | --- | --- | --- | --- | --- | --- |
| C=CCOC(=O)CCCCC [allyl hexanoate] | 71.8 ± 22 | 49.2 ± 19 | 57.3 ± 29 | 24.9 ± 27 | 64.1 ± 27 | 34.4 ± 29 | – | – | – | – | – | – |
| CC(=O)OC(C)(C)Cc1ccccc1 [alpha,alpha-Dimethylphenethyl acetate] | 52.5 ± 21 | – | 36.6 ± 30 | – | 40.3 ± 30 | – | 51.9 ± 31 | 79 ± 17 | 48.8 ± 32 | – | – | – |
| CCCCCC(C=O)=Cc1ccccc1 [alpha-Amylcinnamaldehyde] | 33.2 ± 26 | – | 54.4 ± 32 | – | 36 ± 27 | – | 43.5 ± 27 | 65.5 ± 29 | 45.1 ± 31 | – | – | – |
| CC(O)c1ccccc1 (stereo not drawn) [alpha-Methylbenzyl alcohol] | 50.4 ± 26 | 44.5 ± 23 | 48.4 ± 30 | 15.4 ± 16 | 45 ± 32 | 30.4 ± 30 | – | – | – | – | – | – |
| CC1=CCC2CC1C2(C)C (stereo not drawn) [alpha-pinene] | 45.6 ± 26 | 54.4 ± 21 | 61.4 ± 26 | 27.9 ± 30 | 46.6 ± 31 | 41.4 ± 29 | – | – | – | – | – | – |
| COc1ccccc1 [anisole] | 29.3 ± 26 | 50.2 ± 26 | 75.3 ± 24 | 30.9 ± 30 | 45 ± 34 | 35.4 ± 33 | – | – | – | – | – | – |
| O=Cc1ccccc1 [benzaldehyde] | 61.5 ± 29 | 64.6 ± 22 | 77.4 ± 17 | 30.6 ± 29 | 61.3 ± 27 | 45.3 ± 34 | – | – | – | – | – | – |
| O=C(c1ccccc1)c1ccccc1 [benzophenone] | 57.5 ± 25 | – | 24.9 ± 29 | – | 33.2 ± 28 | – | 36.2 ± 24 | 67.7 ± 27 | 38.6 ± 31 | – | – | – |
| CC(=O)OCc1ccccc1 [benzyl acetate] | 60.4 ± 25 | 54.7 ± 20 | 65.8 ± 29 | 36.3 ± 28 | 52.3 ± 33 | 42.3 ± 27 | – | – | – | – | – | – |
| OCc1ccccc1 [benzyl alcohol] | 52.4 ± 20 | – | 45.4 ± 26 | – | 40.2 ± 25 | – | 46.7 ± 25 | 74.2 ± 18 | 55 ± 29 | – | – | – |
| NCCC(=O)O [beta-Alanine] | 50.2 ± 26 | – | 33.9 ± 25 | – | 40.9 ± 30 | – | 50.1 ± 22 | 38.4 ± 28 | 35.9 ± 30 | – | – | – |
| CC(=O)/C=C/C1=C(C)CCCC1(C)C [beta-Ionone] | 49.2 ± 27 | 62.6 ± 25 | 69.7 ± 25 | 50.6 ± 32 | 52.4 ± 30 | 49.8 ± 31 | – | – | – | – | – | – |
| CCCCO [butanol] | – | 42.7 ± 25 | – | 19.8 ± 23 | – | 35.8 ± 32 | – | – | – | 49.7 ± 26 | 10.7 ± 19 | 27 ± 30 |
| CCCCOC(C)=O [butyl acetate] | 55.6 ± 27 | 61.1 ± 19 | 76.5 ± 18 | 31.6 ± 24 | 67.5 ± 29 | 43.7 ± 31 | – | – | – | – | – | – |
| CCCCOC(=O)CCC [butyl butyrate] | 38.1 ± 26 | 48 ± 24 | 57.9 ± 27 | 25.5 ± 29 | 49.7 ± 28 | 41.3 ± 30 | – | – | – | – | – | – |
| CCCC=O [butyraldehyde] | 17.7 ± 18 | 32.2 ± 21 | 83.4 ± 15 | 51.9 ± 28 | 51.1 ± 29 | 41.8 ± 31 | – | – | – | – | – | – |
| CCCC(=O)O [butyric acid] | 21.1 ± 27 | 16 ± 18 | 86.8 ± 13 | 76.8 ± 23 | 53.1 ± 31 | 50.2 ± 34 | – | – | – | – | – | – |
| CCCCCC(=O)O [caproic acid] | 14.3 ± 19 | 19.4 ± 19 | 84.3 ± 15 | 66.5 ± 28 | 46.7 ± 33 | 45.1 ± 29 | – | – | – | – | – | – |
